Each block holds one molecule with its values, some of them ahead of it.
Assay: solvent given as SMILES

Compound: C1=CCCCC1
solvation free energy, 298 K (in C1CCC2CCCCC2C1): -4.21 kcal/mol
solvation free energy, 298 K (in C1CCC(C2CCCCC2)CC1): -4.18 kcal/mol
solvation free energy, 298 K (in CC#N): -3.43 kcal/mol
solvation free energy, 298 K (in CC(=O)N(C)C): -3.48 kcal/mol
solvation free energy, 298 K (in CCC(C)=O): -4 kcal/mol
solvation free energy, 298 K (in CCCCCCCCO): -3.86 kcal/mol
solvation free energy, 298 K (in CCCCCl): -4.37 kcal/mol
solvation free energy, 298 K (in CCCCN(C=O)CCCC): -3.89 kcal/mol
solvation free energy, 298 K (in CCN1CCCC1=O): -3.79 kcal/mol
solvation free energy, 298 K (in CCN(CC)C(C)=O): -3.85 kcal/mol
solvation free energy, 298 K (in CCNC(C)=O): -3.67 kcal/mol
solvation free energy, 298 K (in CCNC=O): -3.52 kcal/mol
solvation free energy, 298 K (in CN1CCCC1=O): -3.7 kcal/mol
solvation free energy, 298 K (in CN1CCCCC1=O): -3.75 kcal/mol
solvation free energy, 298 K (in CN(C)C=O): -3.66 kcal/mol
solvation free energy, 298 K (in CNC(C)=O): -3.52 kcal/mol
solvation free energy, 298 K (in CNC=O): -3.26 kcal/mol
solvation free energy, 298 K (in COCCO): -3.48 kcal/mol
solvation free energy, 298 K (in CS(C)=O): -3.13 kcal/mol
solvation free energy, 298 K (in N#Cc1ccccc1): -3.95 kcal/mol
solvation free energy, 298 K (in NC=O): -1.87 kcal/mol
solvation free energy, 298 K (in O): 0.36 kcal/mol
solvation free energy, 298 K (in O=CN1CCOCC1): -3.21 kcal/mol
solvation free energy, 298 K (in OCCO): -2 kcal/mol
solvation free energy, 298 K (in OCCOCCO): -2.63 kcal/mol
solvation free energy, 298 K (in OCCOCCOCCO): -2.73 kcal/mol
solvation free energy, 298 K (in c1ccc2c(c1)CCCC2): -4.28 kcal/mol
solvation free energy, 298 K (in c1ccc(C2CCCCC2)cc1): -4.19 kcal/mol
solvation free energy, 298 K (in c1ccccc1): -4.47 kcal/mol

Compound: CCCC#N
solvation free energy, 298 K (in C=CCCCCCCCCCCCCCC): -3.53 kcal/mol
solvation free energy, 298 K (in CC(C)(C)O): -4.67 kcal/mol
solvation free energy, 298 K (in CC(C)CO): -4.56 kcal/mol
solvation free energy, 298 K (in CC(C)O): -4.6 kcal/mol
solvation free energy, 298 K (in CCC(C)O): -4.57 kcal/mol
solvation free energy, 298 K (in CCCCCC): -3.75 kcal/mol
solvation free energy, 298 K (in CCCCCCC): -3.68 kcal/mol
solvation free energy, 298 K (in CCCCCCCCCCCCCCCC): -3.32 kcal/mol
solvation free energy, 298 K (in CCCCCCCCCCO): -3.92 kcal/mol
solvation free energy, 298 K (in CCCCCCCCCO): -4.07 kcal/mol
solvation free energy, 298 K (in CCCCCCCCO): -4.24 kcal/mol
solvation free energy, 298 K (in CCCCCCCO): -4.32 kcal/mol
solvation free energy, 298 K (in CCCCCCO): -4.32 kcal/mol
solvation free energy, 298 K (in CCCCCO): -4.47 kcal/mol
solvation free energy, 298 K (in CCCCO): -4.62 kcal/mol
solvation free energy, 298 K (in CO): -5.21 kcal/mol
solvation free energy, 298 K (in O): -3.63 kcal/mol
solvation free energy, 298 K (in [2H]O[2H]): -3.58 kcal/mol

Compound: CCNc1nc(NCC)nc(SC)n1
solvation free energy, 298 K (in O): -10.1 kcal/mol

Compound: Oc1ccc(O)cc1
solvation free energy, 298 K (in CCCCCC): -6.25 kcal/mol
solvation free energy, 298 K (in CCCCCCCC): -6.58 kcal/mol
solvation free energy, 298 K (in CCCCOC(C)=O): -12.2 kcal/mol
solvation free energy, 298 K (in CCOC(C)=O): -12.3 kcal/mol
solvation free energy, 298 K (in Cc1ccc(C)cc1): -8.81 kcal/mol
solvation free energy, 298 K (in Cc1cccc(C)c1): -8.88 kcal/mol
solvation free energy, 298 K (in Cc1ccccc1C): -8.88 kcal/mol
solvation free energy, 298 K (in O): -12.1 kcal/mol

Compound: CCCCOC(=O)c1ccccc1C(=O)OC(CC)CCCC (configuration not stated)
solvation free energy, 298 K (in O): -6.71 kcal/mol

Compound: c1ccc2c(c1)Oc1ccccc1O2
solvation free energy, 298 K (in O): -3.15 kcal/mol

Compound: C=CC=O
solvation free energy, 298 K (in CCCCCO): -3.22 kcal/mol
solvation free energy, 298 K (in CCCCO): -3.21 kcal/mol
solvation free energy, 298 K (in O): -3.16 kcal/mol

Compound: O=[N+]([O-])c1ccccc1
solvation free energy, 298 K (in CCCCCC): -6.09 kcal/mol
solvation free energy, 298 K (in CCCCCCC): -6.14 kcal/mol
solvation free energy, 298 K (in CCCCCCCCCCCCCCCC): -6.12 kcal/mol
solvation free energy, 298 K (in O): -4.23 kcal/mol

Compound: CCC=O
solvation free energy, 298 K (in C1CCOC1): -3.82 kcal/mol
solvation free energy, 298 K (in C=CCCCCCCCCCCCCCC): -2.47 kcal/mol
solvation free energy, 298 K (in CC(C)CCCC(C)CCCC(C)CCCCC(C)CCCC(C)CCCC(C)C): -2.57 kcal/mol
solvation free energy, 298 K (in CCC(C)=O): -3.85 kcal/mol
solvation free energy, 298 K (in CCCCCCCC): -2.54 kcal/mol
solvation free energy, 298 K (in CCCCCCCCCCCCCCCC): -2.41 kcal/mol
solvation free energy, 298 K (in CCCCCCCCO): -4.15 kcal/mol
solvation free energy, 298 K (in NC=O): -3.26 kcal/mol
solvation free energy, 298 K (in O): -3.35 kcal/mol
solvation free energy, 298 K (in [2H]O[2H]): -3.31 kcal/mol

Compound: CCCCI
solvation free energy, 298 K (in ClC(Cl)(Cl)Cl): -5.57 kcal/mol
solvation free energy, 298 K (in O): -0.25 kcal/mol

Compound: CCCS
solvation free energy, 298 K (in CC(C)CC(C)(C)C): -3.78 kcal/mol
solvation free energy, 298 K (in O): -0.99 kcal/mol

Compound: CNCCc1ccc(OC)cc1
solvation free energy, 298 K (in C=CCCCCCCC=C): -9.47 kcal/mol
solvation free energy, 298 K (in O): -7.94 kcal/mol

Compound: Nc1cccc([N+](=O)[O-])c1
solvation free energy, 298 K (in CC(C)CC(C)(C)C): -8.01 kcal/mol
solvation free energy, 298 K (in O): -8.84 kcal/mol

Compound: Cc1cnccn1
solvation free energy, 298 K (in O): -5.51 kcal/mol

Compound: COc1cc(C2c3cc4c(cc3C(O)C3COC(=O)C23)OCO4)cc(OC)c1OC (configuration not stated)
solvation free energy, 298 K (in CC(C)O): -25.1 kcal/mol
solvation free energy, 298 K (in CCO): -25.3 kcal/mol

Compound: Nc1cccc2ccccc12
solvation free energy, 298 K (in CCCCCC): -8.87 kcal/mol
solvation free energy, 298 K (in CCCCCCCC): -8.82 kcal/mol
solvation free energy, 298 K (in O): -7.4 kcal/mol

Compound: CCCCCBr
solvation free energy, 298 K (in O): -0.1 kcal/mol

Second part, the molecule after the results:

solvation free energy, 298 K (in O): -10.8 kcal/mol
Compound: Cc1ccccc1N(O)C(=O)c1ccc(Cl)cc1

solvation free energy, 298 K (in CC(=O)N(C)C): -3.75 kcal/mol
solvation free energy, 298 K (in CCCCN(C=O)CCCC): -3.87 kcal/mol
solvation free energy, 298 K (in CN1CCCCC1=O): -3.66 kcal/mol
solvation free energy, 298 K (in CNC(C)=O): -3.62 kcal/mol
solvation free energy, 298 K (in O): -1.01 kcal/mol
Compound: CC(C)OC(C)(C)C

solvation free energy, 298 K (in O): -7.31 kcal/mol
Compound: O=Nc1c(O)ccc2ccccc12

solvation free energy, 298 K (in O): -6.78 kcal/mol
Compound: CCCCCCCOC(=O)c1ccccc1C(=O)OCCCCC

solvation free energy, 298 K (in O): -2.64 kcal/mol
Compound: CCCCC(=O)CCCC

solvation free energy, 298 K (in O): 0.63 kcal/mol
Compound: C=C1CCC23C(C)CCC(C(C)C)C2C13 (configuration not stated)

solvation free energy, 298 K (in CCCCCCCC): -4.59 kcal/mol
solvation free energy, 298 K (in CCCCCCCCCC): -4.54 kcal/mol
solvation free energy, 298 K (in O): -3.92 kcal/mol
Compound: CCCC(C)(C)O

solvation free energy, 298 K (in O): -7.99 kcal/mol
Compound: CC(C)C(C)c1ccc(CC(=O)O)cc1 (configuration not stated)

solvation free energy, 298 K (in O): -8.87 kcal/mol
Compound: O=C(OC1CCCCCC1)c1ccccc1C(=O)OC1CCCCCC1

solvation free energy, 298 K (in O): -7.77 kcal/mol
Compound: CN1CCNCC1

solvation free energy, 298 K (in O): -10.6 kcal/mol
Compound: CCNc1nc(NCC)nc(OC)n1

solvation free energy, 298 K (in CC(=O)N(C)C): -14.3 kcal/mol
solvation free energy, 298 K (in CC(C)(C)O): -12.9 kcal/mol
solvation free energy, 298 K (in CN(C)C=O): -14.4 kcal/mol
solvation free energy, 298 K (in O): 4.71 kcal/mol
Compound: CCCCCCCCCCCCCCCCCCCCC

solvation free energy, 298 K (in O): 2.13 kcal/mol
Compound: CCCC1CCCC1

solvation free energy, 298 K (in O): -12.6 kcal/mol
Compound: Cn1c(=O)c2c(ncn2C)n(C)c1=O

solvation free energy, 298 K (in CN1CCCC1=O): -4.22 kcal/mol
solvation free energy, 298 K (in CN(C)C=O): -4.23 kcal/mol
solvation free energy, 298 K (in O): 0.7 kcal/mol
Compound: C1=CCCCCC1

solvation free energy, 298 K (in O): -6.67 kcal/mol
Compound: CCCCCCCCCOC(=O)c1ccccc1C(=O)OCCCC
